Measurements from EP1101496A1, “THERAPEUTIC AGENTS FOR ALLERGIC DISEASES” (FUJI YAKUHIN KOGYO KABUSHIKI KAISHA, priority 1998, dated 2000).

Tests used:
[1] = system: IgE-mediated auricle edema; test: Auricle edema in experimental atopic dermatitis model (anti-DNP IgE sensitization, DNFB elicitation); type: in vivo, Balb/c mice; settings: for % Inhibition vLPR: 7 or 8 days post-elicitation; for % Inhibition vLPR / % Inhibition IPR / % Inhibition LPR: painted on auricles 60 µg/ear/dose in ethanol twice a day; for % Inhibition IPR: 1 hour post-elicitation, 1 hour pre-elicitation to 6 days post-elicitation; for % Inhibition LPR: 1 day post-elicitation
Procedure: Intravenous injection of an anti-2,4-dinitrophenol (DNP) antibody (anti-DNP Ab, monoclonal IgE Ab; its antibody titer was 1 : 512 to 1 : 1024 by a rat heterologous passive cutaneous anaphylaxis reaction using a Wister rat) into a tail vein of female Balb/c mice (7-week old, body weight: 17 to 20 g, purchased from JAPAN SLC, Inc.) at a dose of […] per animal raised passive sensitization. Twenty four hours post-sensitization, 0.1% 2,4-dinitrofluorobenzene (DNFB; Nacalai Tesque, Inc.) in ethanol was painted onto both sides of a pair of mouse auricles at a dose of 10 µL per each side for elicitation.
Fresh unsensitized mice were painted with 0.1% DNFB in ethanol onto their ear in the same manner as aforementioned and served as a control group. Not only immediately prior to elicitation but also 1 hour, 5 hours, daily between Days 1 and 14, and on Day 16 post-elicitation, ear thickness was measured using a dial thickness gauge (Peacock Co.). Each degree of auricle edemas was calculated: Auricular Edema (µm)=(Ear Thickness Post-Elicitation, µm) - (Ear Thickness immediately prior to Elicitation, µm) [formula]
Balb/c mice were passively sensitized with anti-DNP IgE Ab in the same manner as in Example 1. Twenty four hours later, 0.1% DNFB in ethanol was painted onto both sides of a pair of mouse auricles at a dose of 10 µL per each side for elicitation.
Immediately prior to elicitation, 1 hour and on Day 1 post-elicitation, auricle thickness was measured in the same manner as in Example 1. Each therapeutic efficacy is recorded as a percent inhibition wherein the "auricle edema (untreated group)" is used as a control. Auricle Edema Inhibition (%) = [ 1 -(Auricle Edema (Treated Group))/(Auricle Edema (Untreated Group))] × 100 (%) [formula]
Mice were sensitized with anti-DNP IgE Ab and then elicited by painting 0.1% DNFB in ethanol onto both sides of a pair of mouse auricles at a dose of 10 µL per each side 24 hours post-sensitization in the same manner as in Example 1. […] Immediately prior to elicitation, and on Day 7 post-elicitation, auricle thickness was similarly measured. Each therapeutic efficacy is recorded as a percent inhibition wherein the auricle edema in the untreated group is used as a control.
Mice were sensitized with anti-DNP IgE Ab and then elicited by painting 0.1% DNFB in ethanol onto both sides of a pair of mouse auricles at a dose of 10 µL per each side 24 hours post-sensitization in the same manner as in Example 1. […] Immediately prior to elicitation, and on Day 7 post-elicitation, auricle thickness was similarly measured. Each therapeutic efficacy is recorded as a percent inhibition wherein the auricle edema (untreated group) is used as a control.
Mice were sensitized with anti-DNP IgE Ab and then elicited by painting 0.1% DNFB in ethanol onto both sides of a pair of mouse auricles at a dose of 10 µL per each side 24 hours post-sensitization in the same manner as in Example 1. […] Immediately prior to elicitation, at 1 and 4 hours and on Days 1, 3 and 7 post-elicitation, auricle thickness was similarly measured. From each auricle edema (µm) based on the auricle thickness immediately prior to elicitation, especially a prophylactically therapeutic efficacy of the test compound was evaluated.
Mice were sensitized with anti-DNP IgE Ab and then elicited by painting 0.1% DNFB in ethanol onto both sides of a pair of mouse auricles at a dose of 10 µL per each side 24 hours post-sensitization in the same manner as in Example 1. A solution of a test metalloproteinase inhibitor (Compound No. 8; 50 µg/ear/dose, twice a day) in ethanol was painted onto both sides of a pair of the mouse auricles 1 hour pre-elicitation, 0.25, 3, 4, 5 and 6 days post-elicitation (5 animals per group). Immediately prior to elicitation, at 0.5, 1 and 4 hours and on Days 1, 3 and 7 post-elicitation, auricle thickness was similarly measured. Each amount of auricle edemas was calculated (average± standard deviation). […]

Allergic Peritonitis = test: Allergic peritonitis induced by ovalbumin; type: in vivo, male Balb/c mice; settings: for inhibition of infiltration of lymphocytes/macrophages into the peritoneal cavity: ovalbumin challenge
Procedure: In the same manner as in Example 23, mice were actively sensitized with ovalbumin and Alum, and, on Day 14 after the initial sensitization, elicited with an inducing antigen solution. A test metalloproteinase inhibitor compound (Compound No. 20: 30 mg/kg) or a negative control solvent, physiological saline (10 mL/kg), was administered subcutaneously to each animal 6, 3 hours, and 5 minutes pre-induction, 3, and 6 hours post-induction. At 24 hours post-induction, a physiological saline (containing heparin) was injected intraperitoneally at 4 mL/mouse for peritoneal lavage. An aliquot of the retrieved washout medium was taken, and not only measured for a PEC density but also stained for PEC followed by fractional counting. Each effect of the compound on the total PEC number (PEC density× 4 mL), and eosinophils and lymphocytes/macrophages is shown in Table 15. Almost similarly to Examples 22 to 24, the total PEC number and the numbers of eosinophils and lymphocytes/macrophages in the peritoneal cavity are reduced.
Each efficacy on intraperitoneal exudation of neutrophils was examined according to the methods as disclosed in Ouchi et al., "Seibutsu Yakukagaku Jikken Koza, Ensho To Allergy (Inflammation and Allergy) I-3", pp.139 to 151, Hirokawa Publishing Co., Japan and Spicer et al., The International Archives of Allergy and Applied Immunology, 81: 81 to 84, 1986.
In the same manner as in Example 23, male Balb/c mice were sensitized with ovalbumin and an aluminum hydroxide gel, and, on Day 14 after the initial sensitization, elicited with an antigen solution to raise allergic peritonitis. Each test metalloproteinase inhibitor (Compound No. 20 or 21: 30 mg/kg) or a negative control solvent, physiological saline (10 mL/kg), was administered subcutaneously to each animal 1 hour prior to induction, and 3 hours post-induction. At 6 hours post-induction, peritoneal lavage was done similarly to Example 22, measured for a PEC density, and counted for the total PEC number. In the same manner as in Example 22, PEC was stained, and subjected to fractional counting under a microscope with classification into neutrophils, eosinophils, lymphocytes/macrophages and basophils based on their form and stain nature. Each cell ratio was as follows: 2.3% (neutrophil), 1.1% (eosinophil), 95.4% (lymphocyte/macrophage), and 1.2% (basophil) for unsensitized/physiological saline-administered mice; and 5.7% (neutrophil), 11.9% (eosinophil), 81.3% (lymphocyte/macrophage), and 1.1% (basophil) for sensitized/physiological saline-administered mice. By a similar line of reasoning in Example 22, basophils were excluded from subjects to be examined. In the same manner as in Example 22, intraperitoneal exudation inhibition rates were calculated and expressed as the therapeutic efficacies.

[2] = 30 mg/kg s.c. 6, 3 hours and 5 minutes pre-induction, 3 and 6 hours post-induction, 24 hours post-induction (Example 25)
[3] = 30 mg/kg s.c. 1 hour prior to and 3 hours post-induction, 6 hours post-induction (Example 26)

SMILES	inhibitory efficacy on IgE-mediated auricle edema in IPR, LPR and vLPR (FIG. 6) ([1]; 60 mg/kg s.c. only 24 and 2 hours prior to elicitation, compared with prednisolone 10 mg/kg i.p.)	inhibitory efficacy on IgE-mediated auricle edema in IPR, LPR and vLPR (FIG. 7) ([1]; painted on auricles, 50 µg/ear/dose in ethanol, 1 hour pre-elicitation and 0.25, 3, 4, 5, 6 days post-elicitation)	inhibition of infiltration of lymphocytes/macrophages into the peritoneal cavity (Allergic Peritonitis; 30 mg/kg i.p. 5 minutes prior to and 3 and 6 hours post-induction (Example 23)) [%]	inhibition of infiltration of lymphocytes/macrophages into the peritoneal cavity (Allergic Peritonitis; 30 mg/kg s.c. 6 hours and 5 minutes prior to induction, 24 hours after induction (Example 24)) [%]	% Inhibition vLPR [1] [%]	% Inhibition IPR [1] [%]	% Inhibition LPR [1] [%]	Leukocyte exudate inhibition rate (%) (Macrophages)/(Lymphocytes) (Allergic Peritonitis; [2])	Leukocyte exudate inhibition rate (%) Eosinophils (Allergic Peritonitis; [2]) [%]	Leukocyte exudate inhibition rate (%) Total PEC Number (Allergic Peritonitis; [2]) [%]	Leukocyte exudate inhibition rate (%) Eosinophils (Allergic Peritonitis; [3]) [%]	Leukocyte exudate inhibition rate (%) Neutrophils (Allergic Peritonitis; [3]) [%]	Leukocyte exudate inhibition rate (%) Total PEC Number (Allergic Peritonitis; [3]) [%]
CNC(=O)[C@H](Cc1ccc(NC(=N)N)cc1)NC(=O)[C@H](CC(C)C)C(CCCc1ccccc1)C(=O)NO (single isomer, unassigned) [Compound No. 8, N-[4-(N-hydroxyamino)-2(R)-isobutyl-3(R or S)-(3-phenyltrimethylene)succinyl]-L-4'-guanidophenylalanine-N-methylamide 1 acetate]	edema-inhibitory activity equivalent to that of prednisolone in IPR and slightly and markedly higher than that of prednisolone in LPR and vLPR	endowed with an inhibitory activity on edemas in any of IPR, LPR, and vLPR	74.9	91.2									
CNC(=O)[C@H](Cc1ccc(NC(=N)N)cc1)NC(=O)[C@H](CC(C)C)C(CCCc1ccccc1)C(=O)NO.Cl (single isomer, unassigned) [Compound No. 20, N-[4-(N-hydroxyamino)-2(R)-isobutyl-3(R or S)-(3-phenyltrimethylene)succinyl]-L-4'-guanidophenylalanine-N-methylamide 1 hydrochloride]					31	56	58	55.1	38.9	49.6	38.4	41.4	40.9
CNC(=O)[C@H](Cc1ccc(N=C(N)N)cc1)NC(=O)[C@@H](CC(=O)NO)CC(C)C.O=S(=O)(O)O [Compound No. 21, N-[4-(N-hydroxyamino)-2(R)-isobutylsuccinyl]-L-4'-guanidophenylalanine-N-methylamide 1 sulfate]					35	31	22					27.1	38.6
